Measurements taken from ChEMBL document CHEMBL1145148, “Discovery of (2S)-N-[(1R)-2-[4-cyclohexyl-4-[[(1,1-dimethylethyl)amino]carbonyl]-1-piperidinyl]-1-[(4-fluorophenyl)methyl]-2-oxoethyl]-4-methyl-2-piperazinecarboxamide (MB243), a potent and selective melanocortin subtype-4 receptor agonist” (Bioorg Med Chem Lett, 2005).
Where “and” joins values, the source holds several entries; their conditions need not be identical. Equal entries are not always repeated. Values belong to the compound of their own block, whether it stands above or below them.

Legend:
Melanocortin receptor 3 [1] = target: T1, Melanocortin receptor 3 (Homo sapiens, UniProt P41968); experiment: Concentration of compound at 50% maximum cAMP accumulation at human melanocortin-3 receptor; format: functional
T1 sequence (P41968 whole entry): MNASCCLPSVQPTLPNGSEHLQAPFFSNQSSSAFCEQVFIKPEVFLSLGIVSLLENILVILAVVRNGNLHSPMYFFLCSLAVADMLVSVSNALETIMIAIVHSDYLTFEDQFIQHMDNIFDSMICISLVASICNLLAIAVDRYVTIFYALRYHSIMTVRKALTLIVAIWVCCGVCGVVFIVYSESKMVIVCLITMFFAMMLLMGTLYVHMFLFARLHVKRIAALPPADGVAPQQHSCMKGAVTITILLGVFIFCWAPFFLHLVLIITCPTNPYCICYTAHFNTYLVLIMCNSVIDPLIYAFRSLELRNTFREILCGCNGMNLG

Melanocortin receptor 5 [2] = target: T2, Melanocortin receptor 5 (Homo sapiens, UniProt P33032); experiment: Concentration of compound at 50% maximum cAMP accumulation at human melanocortin-5 receptor; format: functional
T2 sequence (P33032 whole entry): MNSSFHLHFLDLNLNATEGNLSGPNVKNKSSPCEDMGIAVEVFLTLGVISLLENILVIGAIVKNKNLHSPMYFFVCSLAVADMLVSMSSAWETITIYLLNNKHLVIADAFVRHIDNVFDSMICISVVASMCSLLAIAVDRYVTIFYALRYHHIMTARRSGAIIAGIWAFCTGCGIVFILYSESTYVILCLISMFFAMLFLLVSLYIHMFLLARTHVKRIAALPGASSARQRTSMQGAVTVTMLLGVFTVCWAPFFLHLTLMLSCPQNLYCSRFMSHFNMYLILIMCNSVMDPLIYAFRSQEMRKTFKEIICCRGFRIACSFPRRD

Melanocortin receptor 4 [3] = target: T3, Melanocortin receptor 4 (Homo sapiens, UniProt P32245); experiment: Concentration for 50% inhibition of human melanocortin-4 receptor expressed in CHO cells using [125I]NDP-alpha-MSH as radioligand; format: cell-based
T3 sequence (P32245 whole entry): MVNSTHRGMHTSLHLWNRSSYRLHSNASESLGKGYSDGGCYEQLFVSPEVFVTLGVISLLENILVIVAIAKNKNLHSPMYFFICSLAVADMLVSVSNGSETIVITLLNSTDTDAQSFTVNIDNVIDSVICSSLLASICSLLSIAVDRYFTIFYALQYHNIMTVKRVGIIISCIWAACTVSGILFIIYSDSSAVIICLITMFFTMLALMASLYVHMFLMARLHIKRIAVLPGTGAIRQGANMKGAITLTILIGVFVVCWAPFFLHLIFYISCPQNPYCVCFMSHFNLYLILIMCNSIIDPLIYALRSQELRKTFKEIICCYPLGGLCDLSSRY

Melanocortin receptor 4 [4] = target: T3, Melanocortin receptor 4; experiment: Effective concentration towards human melanocortin-4 receptor mediated cAMP accumulation in CHO cells; format: functional, cell-based
Melanocortin receptor 5 [5] = target: T2, Melanocortin receptor 5; experiment: Effective concentration towards human melanocortin-5 receptor mediated cAMP accumulation in CHO cells; format: functional, cell-based
Melanocortin receptor 3 [6] = target: T1, Melanocortin receptor 3; experiment: Effective concentration towards human melanocortin-3 receptor mediated cAMP accumulation in CHO cells; format: functional, cell-based, Rattus norvegicus
[7] = target: Melanocortin receptor 3 (Rattus norvegicus) (UniProt P32244); experiment: Concentration of compound at 50% maximum cAMP accumulation at rat melanocortin-3 receptor; format: functional
Sequence of Melanocortin receptor 3 (Rattus norvegicus) (P32244 whole entry): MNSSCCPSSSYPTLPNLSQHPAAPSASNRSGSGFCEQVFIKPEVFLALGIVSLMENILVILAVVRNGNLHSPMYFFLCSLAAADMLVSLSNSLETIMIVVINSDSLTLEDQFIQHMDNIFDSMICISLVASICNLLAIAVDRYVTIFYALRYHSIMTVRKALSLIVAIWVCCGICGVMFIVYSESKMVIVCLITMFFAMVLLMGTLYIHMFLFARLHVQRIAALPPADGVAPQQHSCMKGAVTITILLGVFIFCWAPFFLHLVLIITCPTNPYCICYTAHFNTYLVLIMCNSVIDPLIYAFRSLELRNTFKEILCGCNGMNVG

[8] = target: Melanocortin receptor 4 (Rattus norvegicus) (UniProt P70596); experiment: Concentration of compound at 50% maximum cAMP accumulation at rat melanocortin-4 receptor; format: functional
Sequence of Melanocortin receptor 4 (Rattus norvegicus) (P70596 whole entry): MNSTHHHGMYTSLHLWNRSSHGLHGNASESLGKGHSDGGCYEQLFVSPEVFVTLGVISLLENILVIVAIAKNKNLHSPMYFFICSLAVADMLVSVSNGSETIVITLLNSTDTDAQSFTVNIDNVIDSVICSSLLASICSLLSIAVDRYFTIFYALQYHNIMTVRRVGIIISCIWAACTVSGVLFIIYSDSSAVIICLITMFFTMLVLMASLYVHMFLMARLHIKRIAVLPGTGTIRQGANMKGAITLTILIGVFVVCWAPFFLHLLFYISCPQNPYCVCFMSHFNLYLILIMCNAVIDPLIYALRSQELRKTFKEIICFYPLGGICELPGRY

[9] = target: T4, Melanocyte-stimulating hormone receptor (Homo sapiens, UniProt Q01726); experiment: Concentration of compound at 50% maximum cAMP accumulation at human melanocortin-1 receptor; format: functional
Target sequence in this assay (Q01726 whole entry, looked up): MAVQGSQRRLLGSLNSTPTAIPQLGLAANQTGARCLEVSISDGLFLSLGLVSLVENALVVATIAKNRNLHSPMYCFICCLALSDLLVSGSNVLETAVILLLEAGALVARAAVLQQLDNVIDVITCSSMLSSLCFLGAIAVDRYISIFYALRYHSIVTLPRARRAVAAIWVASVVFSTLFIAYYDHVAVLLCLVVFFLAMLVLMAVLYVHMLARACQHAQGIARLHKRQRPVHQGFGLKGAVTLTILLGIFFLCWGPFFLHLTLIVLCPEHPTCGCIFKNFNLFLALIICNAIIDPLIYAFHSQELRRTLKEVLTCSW

[10] = target: Melanocortin receptor 4 (Mus musculus) (UniProt P56450); experiment: Concentration of compound at 50% maximum cAMP accumulation at mouse melanocortin-4 receptor; format: functional
Sequence of Melanocortin receptor 4 (Mus musculus) (P56450 whole entry): as the sequence (P70596 whole entry) above, with H21Y, S36P, T199S, A239T, P329S, G330S counted along it

[11] = Percentage of cAMP accumulation at 10 uM of compound relative toa-MSH was determined; format: functional
[12] = target: T4, Melanocyte-stimulating hormone receptor; experiment: Concentration for 50% inhibition of human melanocortin-1 receptor expressed in CHO cells using [125I]-NDP-alpha-MSH as radioligand; format: cell-based
Target sequence in this assay (Q01726 whole entry): as the sequence (Q01726 whole entry, looked up) above

Melanocortin receptor 3 [13] = target: T1, Melanocortin receptor 3; experiment: Concentration for 50% inhibition of human melanocortin-3 receptor expressed in CHO cells using [125I]NDP-alpha-MSH as radioligand; format: cell-based
Melanocortin receptor 5 [14] = target: T2, Melanocortin receptor 5; experiment: Concentration for 50% inhibition of human melanocortin-5 receptor expressed in CHO cells using [125I]NDP-alpha-MSH as radioligand; format: cell-based
[15] = target: T4, Melanocyte-stimulating hormone receptor; experiment: Effective concentration towards human melanocortin-1 receptor mediated cAMP accumulation in CHO cells; format: functional, cell-based
Target sequence in this assay (Q01726 whole entry): as the sequence (Q01726 whole entry, looked up) above

Rattus norvegicus = experiment: Percent increase in erectile activity in rats after intravenous administration of 3 mg/kg compound; format: functional
[16] = Half life at 1 mg/kg intravenous administration and 2 mg/kg peroral administration; format: ADME, organism-based; details: cercopithecidae, in vivo
[17] = Half life at 1 mg/kg intravenous administration and 5 mg/kg peroral administration; format: ADME, organism-based; details: rat, in vivo
[18] = Clearance at 1 mg/kg intravenous administration and 2 mg/kg peroral administration; format: ADME, organism-based; details: cercopithecidae, in vivo
[19] = Clearance at 1 mg/kg intravenous administration and 5 mg/kg peroral administration; format: ADME, organism-based; details: rat, in vivo
[20] = Clearance at 0.5 mg/kg intravenous administration and 2 mg/kg peroral administration; format: ADME, organism-based, Canis lupus familiaris; details: dog, in vivo
[21] = Half life at 0.5 mg/kg intravenous administration and 2 mg/kg peroral administration; format: ADME, organism-based, Canis lupus familiaris; details: dog, in vivo
[22] = Vdss at 1 mg/kg intravenous administration and 2 mg/kg peroral administration; format: ADME, organism-based; details: cercopithecidae, in vivo, read-out: Vdss
[23] = Vdss at 1 mg/kg intravenous administration and 5 mg/kg peroral administration; format: ADME, organism-based; details: rat, in vivo, read-out: Vdss
[24] = Vdss at 0.5 mg/kg intravenous administration and 2 mg/kg peroral administration; format: ADME, organism-based, Canis lupus familiaris; details: dog, in vivo, read-out: Vdss
[25] = Maximum time taken by the compound at 1 mg/kg intravenous administration and 2 mg/kg peroral administration; format: ADME, organism-based; details: cercopithecidae, in vivo, po
[26] = Maximum time taken by the compound at 1 mg/kg intravenous administration and 5 mg/kg peroral administration; format: ADME, organism-based; details: rat, in vivo, po
[27] = Maximum time taken by the compound at 0.5 mg/kg intravenous administration and 2 mg/kg peroral administration; format: ADME, organism-based, Canis lupus familiaris; details: dog, in vivo, po
[28] = Percent bioavailability at 1 mg/kg intravenous administration and 2 mg/kg peroral administration; format: ADME, organism-based; details: cercopithecidae, in vivo, po
[29] = Percent bioavailability at 1 mg/kg intravenous administration and 5 mg/kg peroral administration; format: ADME, organism-based; details: rat, in vivo, po
[30] = Percent bioavailability at 0.5 mg/kg intravenous administration and 2 mg/kg peroral administration; format: ADME, organism-based, Canis lupus familiaris; details: dog, in vivo, po

Structure (SMILES): CN1CCN[C@H](C(=O)N[C@@H](Cc2ccc(F)cc2)C(=O)N2CCC(C(=O)NC(C)(C)C)(C3CCCCC3)CC2)C1
cAMP accumulation (Melanocortin receptor 3 [1]): 1%
cAMP accumulation (Melanocortin receptor 5 [2]): 3%

Structure (SMILES): CN1CCN[C@@H](C(=O)N[C@H](Cc2ccc(F)cc2)C(=O)N2CCC(C(=O)NC(C)(C)C)(C3CCCCC3)CC2)C1
cAMP accumulation (Melanocortin receptor 3 [1]): 7%
cAMP accumulation (Melanocortin receptor 5 [2]): 39%
IC50 (Melanocortin receptor 4 [3]): 0.052 µM
EC50 (Melanocortin receptor 4 [4]): 0.082 µM
EC50 (Melanocortin receptor 5 [5]): 2.7 µM

Structure (SMILES): C[C@H](N)C(=O)N1CCN[C@H](C(=O)N[C@H](Cc2ccc(F)cc2)C(=O)N2CCC(C(=O)NC(C)(C)C)(C3CCCCC3)CC2)C1
cAMP accumulation (Melanocortin receptor 3 [1]): 12%
cAMP accumulation (Melanocortin receptor 5 [2]): 27%
IC50 (Melanocortin receptor 4 [3]): 0.03 µM
EC50 (Melanocortin receptor 4 [4]): 0.27 µM
EC50 (Melanocortin receptor 5 [5]): 2 µM

Structure (SMILES): CC(C)CN1CCN[C@H](C(=O)N[C@H](Cc2ccc(F)cc2)C(=O)N2CCC(C(=O)NC(C)(C)C)(C3CCCCC3)CC2)C1
cAMP accumulation (Melanocortin receptor 3 [1]): 19%
cAMP accumulation (Melanocortin receptor 5 [2]): 22%
IC50 (Melanocortin receptor 4 [3]): 0.008 µM
EC50 (Melanocortin receptor 4 [4]): 0.034 µM
EC50 (Melanocortin receptor 5 [5]): 0.34 µM

Structure (SMILES): CCN1CCN[C@H](C(=O)N[C@H](Cc2ccc(F)cc2)C(=O)N2CCC(C(=O)NC(C)(C)C)(C3CCCCC3)CC2)C1
cAMP accumulation (Melanocortin receptor 3 [1]): 3%
cAMP accumulation (Melanocortin receptor 5 [2]): 20%
IC50 (Melanocortin receptor 4 [3]): 0.02 µM
EC50 (Melanocortin receptor 4 [4]): 0.052 µM
EC50 (Melanocortin receptor 5 [5]): 0.84 µM

Structure (SMILES): CC(C)(C)NC(=O)C1(C2CCCCC2)CCN(C(=O)[C@@H](Cc2ccc(F)cc2)NC(=O)[C@@H]2CNCCN2C(=O)OC(C)(C)C)CC1
cAMP accumulation (Melanocortin receptor 3 [1]): 10%
cAMP accumulation (Melanocortin receptor 5 [2]): 43%
IC50 (Melanocortin receptor 4 [3]): 0.018 µM
EC50 (Melanocortin receptor 4 [4]): 0.013 µM
EC50 (Melanocortin receptor 5 [5]): 1.8 µM

Further compounds by falling EC50 (Melanocortin receptor 5 [5]), results first:

cAMP accumulation (Melanocortin receptor 3 [1]): 19%
cAMP accumulation (Melanocortin receptor 5 [2]): 19%
EC50 (Melanocortin receptor 3 [6]): 2.9 µM
IC50 (Melanocortin receptor 4 [3]): 0.087 µM
EC50 (Melanocortin receptor 4 [4]): 0.029 µM
EC50 (Melanocortin receptor 5 [5]): 3.3 µM
Structure (SMILES): CN1CCNC[C@H]1C(=O)N[C@H](Cc1ccc(F)cc1)C(=O)N1CCC(C(=O)NC(C)(C)C)(C2CCCCC2)CC1

cAMP accumulation [7]: 21%
cAMP accumulation [8]: 76%
cAMP accumulation [9]: 85%
cAMP accumulation (Melanocortin receptor 3 [1]): 11%
cAMP accumulation (Melanocortin receptor 5 [2]): 32%
cAMP accumulation [10]: 66%
EC50 (Melanocortin receptor 3 [6]): 0.99 µM
IC50 [12]: 1.7 µM
IC50 (Melanocortin receptor 3 [13]): 2.3 µM and 1.1 µM and 1.6 µM
IC50 (Melanocortin receptor 4 [3]): 8 nM and 7 nM and 16 nM (2×)
IC50 (Melanocortin receptor 5 [14]): 2.4 µM and 13 µM
EC50 [15]: 0.35 µM
EC50 (Melanocortin receptor 4 [4]): 11 nM (2×) and 6 nM and 16 nM
EC50 (Melanocortin receptor 5 [5]): 1.9 µM
EC50 (Melanocortin receptor 5 [5]; cho): 1.9 µM
half-life [16]: 1.3 h
half-life [17]: 1.6 h
clearance [18]: 15.7 mL/min/kg
clearance [19]: 48.7 mL/min/kg
clearance [20]: 5.6 mL/min/kg
half-life [21]: 4.1 h
Vd [22]: 1.2 L/kg
Vd [23]: 5.4 L/kg
Vd [24]: 1.2 L/kg
Tmax [25]: 5 h
Tmax [26]: 1.54 h
Tmax [27]: 0.75 h
bioavailability [28]: 11%
bioavailability [29]: 9%
bioavailability [30]: 17%
Structure (SMILES): CN1CCN[C@H](C(=O)N[C@H](Cc2ccc(F)cc2)C(=O)N2CCC(C(=O)NC(C)(C)C)(C3CCCCC3)CC2)C1
Activation [11]: 4% and 7% and 11%
Activity (Rattus norvegicus): 21.2%

cAMP accumulation (Melanocortin receptor 3 [1]): 6%
cAMP accumulation (Melanocortin receptor 5 [2]): 19%
IC50 (Melanocortin receptor 4 [3]): 0.013 µM
EC50 (Melanocortin receptor 4 [4]): 0.052 µM
EC50 (Melanocortin receptor 5 [5]): 0.51 µM
Structure (SMILES): CC(C)(C)NC(=O)C1(C2CCCCC2)CCN(C(=O)[C@@H](Cc2ccc(F)cc2)NC(=O)[C@@H]2CN(CC(F)F)CCN2)CC1
